Test system: spontaneous contractions of the bladder
Assay: Cystometry on anaesthetized naive rats (suppression of rhythmic spontaneous bladder contractions)
Format: in vivo, rat
Conditions: anaesthetized ventilated naive female rats; i.v., cumulative administration; mean of 3 experiments
Description: The cystometric investigation of naive female rats was carried out by the method of Kimura et al. (Kimura et al., 1996, Int. J. Urol. 3:218-227). The abdomen of anaesthetized ventilated rats is opened up and the ureter is tied off. The urine is drained from the kidneys. A catheter is inserted into the bladder and fixed. […] After stable starting values are reached, the test substance is administered i.v. in a cumulative manner. An influence on bladder function manifests itself via suppression of spontaneous contractions. The absence of contractions over a period of 10 min is the parameter for the suppression.
A suppression of spontaneous contractions in rats was measurable with all the substances tested.

| Structure (SMILES) | Lowest dose (mean of the lowest dose at which for the first time contractions are absent over a period of 10 min) |
| --- | --- |
| COc1cccc(C2(O)CCCCC2CN(C)C)c1 (racemic) [Compound 23, rac-Tramadol, reference compound] | 5.3 (n = 3) mg/kg |
| CN(C)C[C@H]1CCCC[C@]1(F)c1cccc(O)c1.Cl [Compound 18, (+)-(1R,2R)-3-(2-Dimethylaminomethyl-1-fluoro-cyclohexyl)-phenol, hydrochloride] | 0.2 (n = 3) mg/kg |
| CN(C)C[C@H]1CCCC[C@@H]1c1cccc(O)c1.Cl [Compound 19, (+)-(1S,2S)-3-(2-Dimethylaminomethyl-cyclohexyl)-phenol, hydrochloride] | 0.1 (n = 3) mg/kg |
| CN(C)C[C@@H]1CCCC[C@H]1c1cccc(O)c1.Cl [Compound 20, (−)-(1R,2R)-3-(2-Dimethylaminomethyl-cyclohexyl)-phenol, hydrochloride] | 0.5 (n = 3) mg/kg |

Source: patent US6908944B2, “Use of 6-dimethylaminomethyl-1-phenyl-cyclohexane compounds for treatment of urinary incontinence” (Gruenenthal GmbH, priority 2000, dated 2005)
